Tests used:
Format in all cases: in vivo
Iba-1 microglia = experiment: IHC of Iba-1 microglia in mouse brain after hMSC administration; details: normal C57B/L6 mice, hMSCs plus immunosuppressant, day 7, compared to hMSC group
Description: (§1) On day 7 after administration of MEM or hMSCs, the brain was extracted by performing cardiac perfusion, and then fixed in PFA, and histological staining was performed by sectioning tissue.
(§2) MEM or hMSCs were administered to normal C57BL/6 and immunodeficient BALB/c nude mice under the same conditions as in Example 3. […]

helper T cells (CD4) = experiment: IHC of helper T cells (CD4) in mouse brain after hMSC administration; details: normal C57B/L6 mice, hMSCs plus immunosuppressant, day 7, compared to hMSC group
Description: as §1, §2

[1] = test system: human-derived mesenchymal stem cells (hMSCs); experiment: qPCR of human-specific ALU DNA sequence in mouse brain (residual amount of hMSCs); details: normal C57B/L6 mice, hMSCs plus immunosuppressant, compared to hMSC-alone administration group

C=CC[C@@H]1/C=C(\C)C[C@H](C)C[C@H](OC)[C@H]2O[C@@](O)(C(=O)C(=O)N3CCCC[C@H]3C(=O)O[C@H](/C(C)=C/[C@@H]3CC[C@@H](O)[C@H](OC)C3)[C@H](C)[C@@H](O)CC1=O)[C@H](C)C[C@@H]2OC [tacrolimus]
expression of Iba-1 (IHC) (Iba-1 microglia): not statistically significant | expression of CD4 (IHC) (helper T cells (CD4)): reduced | retention rate (survival rate) of stem cells (qPCR) [1]: enhanced

Source: patent publication US12551493B2, “Composition for enhancing therapeutic effect of stem cell, comprising immunosuppressant, and method for enhancing therapeutic effect of stem cell using same” (SAMSUNG LIFE PUBLIC WELFARE FOUNDATION, priority 2019, dated 2026)
